PubChem BioAssay AID179 (DTP/NCI, 2004)
Several values for one entry are separate records, joined by “and”; a condition that tells them apart may be missing. Equal entries are not always repeated. Activity calls are given as the source filed them.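 The calls were made as follows: active = compounds giving half or more protection of infected cells from virus-caused growth loss, again on retest; inactive = the rest.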 Where a SMILES comes first, the peptide text is derived from it. [ ]: non-standard residue; d: D form. Phe(4-NO2) = N[CH](Cc1ccc([N+](=O)[O-])cc1)C(=O)O

Test system: CEM cells HIV-1 protection, formazan growth assay
Assay: NCI AIDS Antiviral Assay
Details: for IC50: measured here: growth of uninfected CEM cells
In short: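 Protection of CEM cells against HIV-1 was scored from cell growth (soluble formazan) across five concentrations, with parallel uninfected cells. Lack of protection may reflect toxicity.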

| Structure (SMILES) | EC50 | IC50 | outcome |
| --- | --- | --- | --- |
| Cn1nc(-c2ccccc2)c(C(=O)/C=C/c2ccc(Cl)cc2)c(N2CCCCC2)c1=O | > 17.8 µM | > 17.8 µM |  |
| CC(C)(C)OC(=O)NC(Cc1ccc(OC(C)(C)C)cc1)C(=O)N[C@H]1CCC[C@H]1C(=O)NC(Cc1ccccc1)C(=O)N1CCCC1C(N)=O (some centres not stated) | > 100 µM | > 100 µM |  |
| CCO/N=[N+](\[O-])N(CC)CC | > 9770 µM | 8710 µM |  |
| O=C(Nc1nc2ncn(CCOC(=O)c3ccccc3)c2c(=O)[nH]1)c1ccccc1 | > 85.1 µM | 61.7 µM |  |
| CN(C)c1ccc(/C=C/C(=O)[O-])cc1.CN(C)c1ccc(/C=C/C(=O)[O-])cc1.[Cu+2] | > 8.51 µM | > 8.51 µM |  |
| CCOC(=O)/C=C/CCO[Si](C)(C)C(C)(C)C | > 200 µM | > 200 µM |  |
| Brc1ccc(C=NC23CC4CC(CC(C4)C2)C3)cc1 | > 56.2 µM | > 56.2 µM |  |
| Cc1ccc(-c2oc(C=Nc3ccccc3)c([N+](=O)[O-])c2-c2ccc(C)cc2)cc1 | > 200 µM | > 200 µM |  |
| CN(C)N=Nc1ccc2[nH]c(=O)[nH]c2c1 | > 200 µM | 102 µM |  |
| Cc1nn(C)cc1P(=S)(c1ccccc1)c1ccccc1 | > 16.6 µM | > 16.6 µM |  |
| CC(C)c1cccc(C(C)C)c1NC(=S)N=Nc1cc(C(C)(C)C)c(O)c(C(C)(C)C)c1 | > 5.75 µM | > 5.75 µM |  |
| CCOC(=O)C(O)(C(=O)OCC)c1cc(C(C)(C)C)c(O)c(C(C)(C)C)c1 | > 200 µM | 83.2 µM |  |
| CN1CCCN2CCN(C)CCCN(CC1)CC2 | > 977 µM | > 977 µM |  |
| CN1C(=O)c2cccc3c([N+](=O)[O-])ccc(c23)C1=O | > 20.4 µM | 7.76 µM |  |
| O=C1c2ccccc2C(=O)C1(Cl)C1(Cl)C(=O)c2ccccc2C1=O |  |  | inactive |
| O=C1C(=O)N(c2cccc(C(F)(F)F)c2)C(=S)N1c1ccccc1 | > 200 µM | 30.9 µM |  |
| O=[N+]([O-])c1ccc(S(=O)(=O)n2c3ccc(Br)cc3c3nc4ccccc4nc32)cc1 | > 100 µM | > 100 µM |  |
| C/C(N)=N/OCc1nc(C)no1 | > 200 µM | > 200 µM |  |
| CC1(C)CC2=NO[Se]3=C2C(=NO3)C1 | > 3.55 µM | 0.191 µM |  |
| CC(=O)OC[C@@H](OC(C)=O)[C@@H](OC(C)=O)[C@H]1OC[C@@H]2C[C@H]([C@H]1OC(C)=O)N(Cc1ccccc1)O2 | 93.3 µM | > 200 µM |  |

| Structure (SMILES) | EC50 | IC50 | outcome |
| --- | --- | --- | --- |
| C1CCC(N2OC23CCCCC3)CC1 (configuration not stated) |  |  | inactive |
| O=C1c2ccccc2-c2nccc3c2c1nc1ccccc13 | > 200 µM | 8.32 µM |  |
| CC(C)(C)[Si](C)(C)Oc1cc(CO)cc2c1cc(=N)o[n+]2[O-] | > 200 µM | 10.2 µM |  |
| CN(C)CCC=C1c2ccccc2C=Cc2ccccc21 | > 200 µM | 33.9 µM and 28.8 µM and 37.2 µM |  |
| Cc1c(Cc2ccccc2)n(COCCCN2C(=O)c3ccccc3C2=O)c(=O)[nH]c1=O | > 200 µM | 26.3 µM |  |
| COc1cccc(C(=O)N2CCc3ccccc32)c1OC |  |  | inactive |
| CCCCCCCCCCCCCC(=O)CSCCNC(=O)CCNC(=O)[C@@H](O)C(C)(C)COP(=O)(O)OP(=O)(O)OCC1OC(n2cnc3c(N)ncnc32)C(O)C1OP(=O)(O)O (some centres not stated) |  |  | inactive |
| Cn1nc2ccc([N+](=O)[O-])cc2[n+]1[O-] | > 200 µM | 155 µM |  |
| O=C(CCC(=O)OCC1OC(O)(CC2OC(CO)C(O)C(O)C2O)C(O)C1O)OCc1ccccc1 (configuration not stated) | > 200 µM | > 200 µM |  |
| CCCNC(=S)N=Nc1c(O)[nH]c2ccccc12 | > 200 µM | > 200 µM |  |
| COC(=O)CNCc1cc(N(C)C)cc(CNCC(=O)OC)n1 | > 200 µM | > 200 µM |  |
| O=NC1C2CCC(C2)C1N=O.[Co].[c-]1[c-][c-][cH-][c-]1 (configuration not stated) | > 200 µM | 49 µM |  |
| CC(C)C1CN1CC(O)Cn1ccnc1[N+](=O)[O-] (configuration not stated) | > 200 µM | > 200 µM |  |
| O=C1C(=O)c2ccccc2C(O)=C1C(C1=C(O)c2ccccc2C(=O)C1=O)c1ccc(Cl)cc1 | > 200 µM | 37.2 µM |  |
| COc1cc2[nH]c(=O)[nH]c2c2c(C)c[nH]c12 | > 200 µM | > 200 µM |  |
| Nc1ccc2c(c1)C(=O)N(O)C2=O | > 1410 µM | 759 µM |  |
| O=C(Nc1ccccc1)N1C(c2ccccc2)=N[C@@H](c2ccccc2)[C@@H]1c1ccccc1 |  |  | inactive |
| [Pt].c1ccc([PH+](c2ccccc2)c2ccccc2)cc1.c1ccc([PH+](c2ccccc2)c2ccccc2)cc1.c1ccc([PH+](c2ccccc2)c2ccccc2)cc1.c1ccc([PH+](c2ccccc2)c2ccccc2)cc1 | > 11 µM | > 11 µM |  |
| O=S(=O)(c1ccc(Br)cc1)n1c2ccc(Br)cc2c2nc3ccccc3nc21 | > 100 µM | > 100 µM |  |
| CC(=O)Oc1c(C)c2c(c3ccccc13)OC(C)(C)C2 | > 200 µM | 24 µM |  |

| Structure (SMILES) | EC50 | IC50 | outcome |
| --- | --- | --- | --- |
| COc1cc2c(cc1O)C1C(O2)c2ccc(OCc3ccccc3)cc2OC1(C)C (configuration not stated) | > 200 µM | 15.1 µM |  |
| Clc1ccc(-c2nn3c(C45CC6CC(CC(C6)C4)C5)nnc3s2)cc1 | > 200 µM | > 200 µM |  |
| C=Cc1nc(C#N)c(N)o1 |  |  | inactive |
| COc1cc(C(c2cccc3ccccc23)N2C(=O)CCC2C(=O)NCc2ccccc2)cc(OC)c1OC (configuration not stated) | > 200 µM | > 200 µM |  |
| CC(=O)N/N=C1\CC(C)(C)C2CCC1C2 (configuration not stated) |  |  | inactive |
| Cc1cc2c(=O)c3ccc(Cl)cc3[nH]c2c(C(N)=O)c1C |  |  | inactive |
| CCOC(=O)/C(=C\c1ccc(Cl)cc1)C(C)=O | > 372 µM | 64.6 µM |  |
| CC(NC(=O)C(Cc1ccc([N+](=O)[O-])cc1)NC(=O)C(N)CCCCN)C(=O)NC(Cc1ccc([N+](=O)[O-])cc1)C(N)=O (configuration not stated) (H-K[Phe(4-NO2)]A[Phe(4-NO2)]-NH2; configuration not given here) | > 200 µM | > 200 µM |  |
| COc1cc(OC)c(C2(c3c(OC(C)C)c(=O)c3=O)SCCCS2)cc1OC | > 200 µM | 170 µM |  |
| COc1cccc(NC(=S)/C(=C(/[O-])c2ccc([N+](=O)[O-])cc2)[n+]2ccccc2)c1 | > 200 µM | > 200 µM |  |
| C=C1CN(S(=O)(=O)c2ccc(C)cc2)CCCN(C(C)C)CCCN(S(=O)(=O)c2ccc(C)cc2)C1 | > 200 µM | 6.31 µM |  |
| CC(C)[Si](OC12CCC(CC1O)CC2C(=O)O)(C(C)C)C(C)C (configuration not stated) | > 200 µM | 22.4 µM |  |
| c1cnc2c(c1)-n1cccc1C1(CCOCC1)NN2 | > 200 µM | > 200 µM |  |
| COc1ccc(-c2c(C(C)=O)c(-c3ccccc3)n(C3OC(COC(C)=O)C(OC(C)=O)C(OC(C)=O)C3OC(C)=O)c(=S)c2C#N)cc1 (configuration not stated) | > 200 µM | 123 µM |  |
| CCCCCCCCN1CCCN(/N=C/c2c3c(O)c4c(O)c(C)c5c(c4c2O)C(=O)C(C)(O/C=C/C(OC)C(C)C(OC(C)=O)C(C)C(O)C(C)C(O)C(C)/C=C/C=C(C)C(=O)N3)O5)CC1 (configuration not stated) | > 200 µM | 7.24 µM |  |
| COc1ccc(Cc2nnc(C)c3c(C)[nH]nc23)cc1 | > 525 µM | 33.9 µM |  |
| COC(=O)c1c(C)cc(OC(=O)c2c(C)cc(O)c(C=O)c2O)c(C)c1O | > 151 µM | 20.4 µM |  |
| CSc1nc(NC(=O)c2ccc([N+](=O)[O-])cc2)c(C(=O)NC(C)C)s1 | > 200 µM | 138 µM |  |
| O=NNc1ccc(Sc2ccc(NN=O)cn2)nc1 | > 100 µM | > 100 µM |  |
| Oc1ccc(S)cc1CNc1ccccc1 | > 200 µM | 22.4 µM |  |
